Reference: patent publication US20050059639A1, “Ophthalmic compositions and method for treating eye discomfort and pain” (priority 2003, published 2005)
Marks after values point to notes of the source that are not given here.

Columns and labels:
[1] = test system: medial canthus of the eyelids; assay: Sensory quality of the solution on the medial canthus of the eyelids / eye surface; format: in vivo, human; details: for Sensory Quality: solution applied on the medial canthus of the eyelids
Excerpt: [table] In selecting a particular analog, it is desirable to have one that has a long duration of action (several hours) and minimal stinging and burning sensations. These parameters are not predicted by the cooling effect of these substances on the human tongue, but must be determined by experiment. […] Thus, the hexyl analog is the preferred therapeutic of the two. The other particularly preferred analogs that have the desired qualities of long duration of action and absence of stinging and burning effects are identified with an asterisk in Table 1.

[2] = test system: eye disorders; assay: Estimate of ideal therapeutic eye drop concentration to relieve eye disorders; format: in vivo, human; details: for Eye Therapy: estimate of ideal therapeutic concentration applied as eye drops to relieve eye disorders
Experimental: (§1) The therapeutic concentrations of the preferred analogs are in the range of 10 to 80 μg/ml […], but concentrations as low as 0.1 μg/ml may elicit effects in sensitive individuals.
The potency of certain specific trialkyl phosphine oxides, e.g. isopropyl, sec-butyl, n-octyl-phosphine oxide, in relieving eye discomfort is exceptionally high, on the order of 0.001%. In such situations, an alternative preferred description of an effective unit dose is 0.01 mg/ml or 10 μg/ml, which is equivalent to 0.001% weight percent.

[3] = test system: tongue of human volunteers; assay: Cooling sensations when applied to the tongue of human volunteers; format: in vivo; details: for Duration of Action: duration of the cooling action on the tongue; for Relative Potency: reciprocal of threshold, normalized to unity for analogs with 1.25 μg/ml; for Threshold: threshold for producing cooling sensations on the tongue of human volunteers
Experimental: as §1

[4] = test system: stinging and burning sensations on the eye; assay: Adjuncts to reduce stinging of trialkyl phosphine oxide eye drops; format: in vivo, human
[5] = test system: stinging and burning sensations on the eye; assay: as above; format: in vivo, human; remark: listed apart in the source
Experimental: I conclude that hydrocarbon polyols are useful adjuncts for preparing a therapeutic formulation of a trialkyl phosphine oxide eye drop solution.
(§2) A 0.2% (2.0 mg/ml) disec-butyl-n-heptyl-phosphine oxide eye drop solution was prepared by adding the compound to an isotonic solution of sodium chloride, 0.65% in deionized water, monobasic potassium phosphate/sodium hydroxide buffer, preserved with disodium EDTA and benzalkonium chloride. The liquid was individually aliquoted into a ¼ oz. bottle with a Yorker spout (E.D. Luce Packaging) suitable for droplet delivery. This solution was then applied to the closed eyes of three volunteers, with two to three drops of the solution applied to each eye. The subjects complained of stinging and burning sensations on the eye surface, lasting for about 2 min. A series of six solutions were then prepared in which six different hydrocarbon polyols were added to the parent 0.2% solution. The individual additions were 1.5% sucrose, 1.5% fructose, 1.5% dextrose, 1.5% lactose, 1.5% inositol, or 0.5% carboxymethylcellulose. […] There was some tearing, but no evidence of increased eye redness from the hydrocarbon polyols and subjective complaints of discomfort were minimal.

[6] = test system: closed eyes of volunteers; assay: Eye drops applied to medial canthus of closed eyes, kept closed about 1 min; format: in vivo, human; details: 0.2% (2.0 mg/ml) solution, 2-3 drops, closed eyes, three volunteers
Experimental: For trialkyl phosphine oxide eye drop solutions of this invention, I have discovered an indirect method of application as follows. The eye dropper is aimed at the medial canthus (nasal corner) of the eye, the eye is then closed, the dispenser is squeezed to emit the eye drops, and the eye kept closed for about 1 min. This method of application can substantially avoid stinging and burning sensations. Apparently, the adaptation period of about 1 min allows the sensory processes to develop tolerance to the initial stinging and burning stimuli. For example, if a 0.4 mg/ml solution of disec-butyl, n-hexyl-phosphine oxide [synonym, 1-(Di-sec-butyl-phosphinoyl)-hexane] in isotonic-buffered saline is dropped on the open eye, it causes stinging and burning for about 1 min. However, applied onto the corners of the eye, with the eyes closed for 1 min, these stinging and burning sensations are avoided. The medial canthus is preferred to the lateral canthus because the geometry of the orbit permits a longer residence time for the eye drop applied to the medial corner. Drops applied to the lateral canthus are less precisely located and rapidly dribble off the zygoma (cheekbone). A user can be instructed in this indirect method by including the instructions on packaging labels and/or inserts associated with the doses.
The solution, as in Example 1, was then used by another three subjects with the instruction to apply the droplets to the nasal corner of the eye (medial canthus), without touching the tip of the dispenser to the eyelid surface, to let the solution seep into the eyelids and eye surface but to keep eyes closed for at least one minute. The subjects reported slight sensations of stinging when the eyes were opened, effects that lasted for less than 1 minute, followed by sensations of coolness and comfort lasting at least two hours. The experiment was then repeated, but with a higher concentration of 0.2% of disec-butyl-n-hexyl-phosphine oxide.
as §2

Row | Compound | Sensory Quality [1] | Eye Therapy [2] | Duration of Action [3] | Relative Potency [3] | Threshold [3] | other results
1 | CCCCCCCCP(=O)(C(C)C)C(C)CC (stereo not shown) [n-C8H17 / iso-C3H7 / sec-C4H9, isopropyl, sec-butyl, n-octyl-phosphine oxide] | cool only | 10* μg/ml | 18 min | 10 | 0.1 µg/mL | potency in relieving eye discomfort ([2]; weight percent, equivalent to 10 μg/ml): ~0.001%
2 | OC[C@H]1O[C@H](O[C@]2(CCl)O[C@H](CCl)[C@@H](O)[C@@H]2O)[C@H](O)[C@@H](O)[C@H]1Cl [sucralose, reference compound] | – | – | – | – | – | effect of adjunct on stinging and burning sensations of several trialkyl phosphine oxide solutions ([4]; in vivo): not active
3 | CCCCCCCCCCP(=O)(CCC(C)C)CCC(C)C [n-C10H21 / iso-C5H11 / iso-C5H11] | cool/sting | >1500 µg/mL | 10 min | <0.005 | >250 µg/mL | –
4 | CCCCCCP(=O)(C(C)C)C(C)CC (stereo not shown) [n-C6H13 / iso-C3H7 / sec-C4H0] | cool/sting | 15 µg/mL | 45 min | 2.5 | 0.5 µg/mL | –
5 | CCCCCCCCP(=O)(CCCCCC)CCCCCC [n-C8H17 / n-C6H13 / n-C6H13] | cool/sting | >1500 µg/mL | 10 min | <0.005 | >250 µg/mL | –
6 | CCCCCCP(=O)(CCC)C(C)(C)C (stereo not shown) [n-C6H13 / tert-C4H9 / n-C3H7] | cool only | 30* μg/ml | 7.5 min | 0.36 | 3.5 µg/mL | –
7 | OC[C@H]1O[C@@](CO)(O[C@H]2O[C@H](CO)[C@@H](O)[C@H](O)[C@H]2O)[C@@H](O)[C@@H]1O [sucrose] | – | – | – | – | – | effect of adjunct on initial stinging sensations ([5]; in vivo): reduce the initial stinging sensations; effect of adjunct on stinging and burning sensations of several trialkyl phosphine oxide solutions ([4]; in vivo): substantially reduced
8 | CCCCCCCP(=O)(C(C)C)C(C)CC (stereo not shown) [n-C7H15 / iso-C3H7 / sec-C4H9] | cool only | 10* μg/ml | 18 min | 10 | 0.1 µg/mL | –
9 | CCCCCCCCP(=O)(C(C)CC)C(C)CC (stereo not shown) [n-C8H17 / sec-C4H9 / sec-C4H9] | cool/sting | 30 µg/mL | 10 min | 2.5 | 0.5 µg/mL | –
10 | CCCP(=O)(CCC)CCC(C)C [i-C5H11 / n-C3H7 / n-C3H7] | cool/sting | >1500 µg/mL | 5 min | <0.005 | >250 µg/mL | –
11 | O[C@H]1[C@H](O)[C@@H](O)[C@H](O)[C@@H](O)[C@H]1O [inositol] | – | – | – | – | – | effect of adjunct on initial stinging sensations ([5]; in vivo): reduce the initial stinging sensations; effect of adjunct on stinging and burning sensations of several trialkyl phosphine oxide solutions ([4]; in vivo): substantially reduced
12 | CCCCCCCCCP(=O)(CC(C)C)CC(C)C [n-C9H19 / iso-C4H9 / iso-C4H9] | cool/sting | >250 µg/mL | 15 min | 0.025 | 50 µg/mL | –
13 | OC[C@H]1O[C@@H](O[C@H]2[C@H](O)[C@@H](O)C(O)O[C@@H]2CO)[C@H](O)[C@@H](O)[C@H]1O (stereo partly shown) [lactose] | – | – | – | – | – | effect of adjunct on initial stinging sensations ([5]; in vivo): reduce the initial stinging sensations
14 | CCCCCCCP(=O)(CCCCCCC)C(C)(C)C [n-C7H15 / n-C7H15 / tert-C4H9] | cool/sting | >150 µg/mL | 10 min | 0.06 | 20 µg/mL | –
15 | CCCCCP(=O)(CC)CCCCC [n-C5H11 / n-C5H11 / n-C2H5] | cool/sting | >1000 µg/mL | 5 min | <0.008 | >150 µg/mL | –
16 | CCCCCCP(=O)(CC)CCCCCC [n-C6H13 / n-C6H13 / n-C2H5] | cool/sting | >150 µg/mL | 5 min | 0.06 | 20 µg/mL | –
17 | CCCCCCP(=O)(CCC(C)C)C(C)C (stereo not shown) [n-C6H13 / iso-C5H11 / iso-C3H7] | cool only | 25* μg/ml | 5 min | 1 | 1.25 µg/mL | –
18 | CCCCCCCP(=O)(C(C)CC)C(C)CC (stereo not shown) [n-C7H15 / sec-C4H9 / sec-C4H9, disec-butyl-n-heptyl-phosphine oxide] | cool/sting | 15 µg/mL | 10 min | 0.8 | 1.5 µg/mL | activity in producing stinging and burning sensations relative to hexyl analog ([1]; eye surface): three times more active; duration of action on the eye surface relative to hexyl analog ([1]; eye surface): half the duration of action; potency on the human tongue (comparison of the two analogs) ([3]; hexyl vs heptyl analog): about equipotent; duration of stinging and burning sensations on the eye surface [6]: about 2 min
19 | carboxymethylcellulose | – | – | – | – | – | effect of adjunct on initial stinging sensations ([5]; in vivo): reduce the initial stinging sensations; effect of adjunct on stinging and burning sensations of several trialkyl phosphine oxide solutions ([4]; in vivo): substantially reduced
20 | CCCCCCCP(=O)(CCC(C)C)C(C)C (stereo not shown) [n-C7H15 / iso-C5H11 / iso-C3H7] | cool/oily | 20* μg/ml | 5 min | 1 | 1.25 µg/mL | –
21 | O=C(CO)[C@@H](O)[C@H](O)[C@H](O)CO [fructose] | – | – | – | – | – | effect of adjunct on initial stinging sensations ([5]; added to 0.2% disec-butyl-n-heptyl-phosphine oxide solution, 1.5% (0.5% for carboxymethylcellulose)): reduce the initial stinging sensations; effect of adjunct on stinging and burning sensations of several trialkyl phosphine oxide solutions ([4]; 1 to 2% sucrose, other carbohydrates, 0.5% carboxymethylcellulose, sucralose at equivalent sweetening concentrations): substantially reduced
22 | CCC(C)P(=O)(CCC(C)C)CCC(C)C (stereo not shown) [iso-C5H11 / iso-C5H11 / sec-C4H9, di-isopentyl-sec-butyl phosphine oxide] | cool/sting | >150 µg/mL | 5 min | 0.06 | 20 µg/mL | –
23 | CCCCCCP(=O)(CCCC)C(C)(C)C (stereo not shown) [n-C6H13 / tert-C4H9 / n-C4H9] | cool only | 25* μg/ml | 5 min | 0.8 | 1.5 µg/mL | –
